Reference: patent publication US10987343B2, “Compositions and methods for treating pulmonary diseases” (CASE WESTERN RESERVE UNIVERSITY, priority 2015, dated 2021)

Key:
CF mice [1] = assay: Survival and health of CF mice during the drug study; format: in vivo
Procedure: (§1) Drugs exist that are designed to specifically block the AGTR2 receptor, and we used one of these drugs to determine whether the same benefits may be achievable through pharmaceutical intervention. Briefly, CF mice were treated via subcutaneous injection of EMA200 (PD123319), available from Sigma Pharmaceuticals), at a dose of 2 mg/kg per day. The mice were treated from age 3 weeks through adulthood (16 weeks), 5 days per week. At 16 weeks, the pulmonary mechanics of the mice were assessed using the forced oscillation technique (FIG. 1).

CF mice [2] = assay: Pulmonary mechanics of CF mice by forced oscillation technique (FlexiVent) after treatment with AGTR2 blocker; format: in vivo; settings: 2 mg/kg per day subcutaneous, 5 days per week, age 3 to 16 weeks, assessed at 16 weeks, 2 mg/kg/day
Description: AGTR2 knockout mice (AT KO; dark grey bars) are indistinguishable from WT mice.
We recently used a forced mechanical oscillation procedure to evaluate pulmonary mechanics in CF mice (DF508 congenic C57bl/6). We determined that CF mice have decreased compliance and increased elastance of their overall respiratory system, along with altered airway tissue elastance, damping, and static compliance (FIG. 1). […] Taken together, these findings indicate increased impedance of the small airways in CF mice, as differences in CF mouse pulmonary mechanics were confined to the peripheral tissues, which include the distal airways and lung parenchyma itself. This is consistent with the pulmonary phenotype of CF patients, where significant increases in small airways resistance may occur even in patients with normal spirometry.
as §1

Cc1cc(Cn2cnc3c2CC(C(=O)O)N(C(=O)C(c2ccccc2)c2ccccc2)C3)ccc1N(C)C (centres unmarked) [EMA200, 1-(4-Dimethylamino-3-methylphenyl)methyl-5-diphenylacetyl-4,5,6,7-tetrahy-dro-1H-imidazo[4,5-c]-pyridine-6-carboxylic acid]
survival of CF mice (CF mice [1]; 6 CF mice, daily injections, saline controls 5/6 died): all survived
general health appearance of CF mice (CF mice [1]; versus control untreated CF mice): appeared much healthier
pulmonary mechanics / all aspects of pulmonary disease (respiratory system compliance and elastance, tissue damping, tissue elastance, static tissue compliance) (CF mice [2]): successfully restored/prevented all aspects of pulmonary disease in CF mice
shape parameter (inhalation/exhalation curve shape, K) (CF mice [2]): not improved
pulmonary mechanics / all aspects of pulmonary disease (respiratory system compliance and elastance, tissue damping, tissue elastance, static tissue compliance) (CF mice [2]; listed as AGTR2 inhibitor): improved pulmonary mechanics
